According to US8192962B2, “Processes for detecting toxic substances” (Daikin Industries, Ltd., priority 2001, dated 2012):

Tested on: Detoxification protein genes
Assay: DNA chip mRNA expression in yeast, detoxification protein genes (Table 8)
Format: cell-based, Saccharomyces cerevisiae S288C
Procedure, shortened: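 Expression change after 2 h toxicant exposure (growth-inhibiting, sub-lethal) of log-phase S. cerevisiae S288C at 25° C. Oligo-dT-purified mRNA was labeled with Cy3-dUTP or Cy5-dUTP and hybridized >12 h at 65° C. to a genome-wide chip; ratio of scanned fluorescence to control.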

## S=C([S-])NCCNC(=S)[S-].[Zn+2] [(11), zinc N,N′-ethylenebis(dithiocarbamate)]
Yeast gene YBL064C
  The level of expressed mRNA in the presence of chemical substance/The level of expressed mRNA in the absence of chemical substance: 2.9
Yeast gene YBR008C
  The level of expressed mRNA in the presence of chemical substance/The level of expressed mRNA in the absence of chemical substance: 9.4
Yeast gene YBR145W
  The level of expressed mRNA in the presence of chemical substance/The level of expressed mRNA in the absence of chemical substance: 1.1
Yeast gene YBR244W
  The level of expressed mRNA in the presence of chemical substance/The level of expressed mRNA in the absence of chemical substance: 1.5
Yeast gene YBR293W
  The level of expressed mRNA in the presence of chemical substance/The level of expressed mRNA in the absence of chemical substance: 1.1
Yeast gene YCL035C
  The level of expressed mRNA in the presence of chemical substance/The level of expressed mRNA in the absence of chemical substance: 2.1
Yeast gene YCL069W
  The level of expressed mRNA in the presence of chemical substance/The level of expressed mRNA in the absence of chemical substance: 1.0
Yeast gene YCR083W
  The level of expressed mRNA in the presence of chemical substance/The level of expressed mRNA in the absence of chemical substance: 1.8
Yeast gene YDL100C
  The level of expressed mRNA in the presence of chemical substance/The level of expressed mRNA in the absence of chemical substance: 2.8
Yeast gene YDL168W
  The level of expressed mRNA in the presence of chemical substance/The level of expressed mRNA in the absence of chemical substance: 1.9
Yeast gene YDR256C
  The level of expressed mRNA in the presence of chemical substance/The level of expressed mRNA in the absence of chemical substance: 1.4
Yeast gene YDR453C
  The level of expressed mRNA in the presence of chemical substance/The level of expressed mRNA in the absence of chemical substance: 2.3
Yeast gene YDR513W
  The level of expressed mRNA in the presence of chemical substance/The level of expressed mRNA in the absence of chemical substance: 2.0
Yeast gene YDR538W
  The level of expressed mRNA in the presence of chemical substance/The level of expressed mRNA in the absence of chemical substance: 0.9
Yeast gene YEL027W
  The level of expressed mRNA in the presence of chemical substance/The level of expressed mRNA in the absence of chemical substance: 0.9
Yeast gene YEL065W
  The level of expressed mRNA in the presence of chemical substance/The level of expressed mRNA in the absence of chemical substance: 0.6
Yeast gene YER185W
  The level of expressed mRNA in the presence of chemical substance/The level of expressed mRNA in the absence of chemical substance: 1.6
Yeast gene YFL050C
  The level of expressed mRNA in the presence of chemical substance/The level of expressed mRNA in the absence of chemical substance: 1.2
Yeast gene YGL013C
  The level of expressed mRNA in the presence of chemical substance/The level of expressed mRNA in the absence of chemical substance: 0.9
Yeast gene YGL254W
  The level of expressed mRNA in the presence of chemical substance/The level of expressed mRNA in the absence of chemical substance: 1.1
Yeast gene YGR088W
  The level of expressed mRNA in the presence of chemical substance/The level of expressed mRNA in the absence of chemical substance: 3.9
Yeast gene YGR138C
  The level of expressed mRNA in the presence of chemical substance/The level of expressed mRNA in the absence of chemical substance: 0.7
Yeast gene YGR197C
  The level of expressed mRNA in the presence of chemical substance/The level of expressed mRNA in the absence of chemical substance: 1.1
Yeast gene YGR209C
  The level of expressed mRNA in the presence of chemical substance/The level of expressed mRNA in the absence of chemical substance: 3.1
Yeast gene YGR224W
  The level of expressed mRNA in the presence of chemical substance/The level of expressed mRNA in the absence of chemical substance: 0.8
Yeast gene YHL040C
  The level of expressed mRNA in the presence of chemical substance/The level of expressed mRNA in the absence of chemical substance: 1.7
Yeast gene YHL047C
  The level of expressed mRNA in the presence of chemical substance/The level of expressed mRNA in the absence of chemical substance: 1.0
Yeast gene YHR008C
  The level of expressed mRNA in the presence of chemical substance/The level of expressed mRNA in the absence of chemical substance: 2.1
Yeast gene YHR048W
  The level of expressed mRNA in the presence of chemical substance/The level of expressed mRNA in the absence of chemical substance: 2.0
Yeast gene YHR053C
  The level of expressed mRNA in the presence of chemical substance/The level of expressed mRNA in the absence of chemical substance: 1.4
Yeast gene YHR055C
  The level of expressed mRNA in the presence of chemical substance/The level of expressed mRNA in the absence of chemical substance: 1.8
Yeast gene YIR002C
  The level of expressed mRNA in the presence of chemical substance/The level of expressed mRNA in the absence of chemical substance: 0.8
Yeast gene YIR038C
  The level of expressed mRNA in the presence of chemical substance/The level of expressed mRNA in the absence of chemical substance: 3.4
Yeast gene YJL101C
  The level of expressed mRNA in the presence of chemical substance/The level of expressed mRNA in the absence of chemical substance: 2.7
Yeast gene YJR104C
  The level of expressed mRNA in the presence of chemical substance/The level of expressed mRNA in the absence of chemical substance: 2.6
Yeast gene YKL026C
  The level of expressed mRNA in the presence of chemical substance/The level of expressed mRNA in the absence of chemical substance: 3.0
Yeast gene YKL064W
  The level of expressed mRNA in the presence of chemical substance/The level of expressed mRNA in the absence of chemical substance: 0.7
Yeast gene YKR066C
  The level of expressed mRNA in the presence of chemical substance/The level of expressed mRNA in the absence of chemical substance: 1.3
Yeast gene YKR105C
  The level of expressed mRNA in the presence of chemical substance/The level of expressed mRNA in the absence of chemical substance: 0.0
Yeast gene YKR106W
  The level of expressed mRNA in the presence of chemical substance/The level of expressed mRNA in the absence of chemical substance: 1.8
Yeast gene YLL028W
  The level of expressed mRNA in the presence of chemical substance/The level of expressed mRNA in the absence of chemical substance: 0.7
Yeast gene YLL057C
  The level of expressed mRNA in the presence of chemical substance/The level of expressed mRNA in the absence of chemical substance: 1.3
Yeast gene YLL060C
  The level of expressed mRNA in the presence of chemical substance/The level of expressed mRNA in the absence of chemical substance: 14.1
Yeast gene YLR043C
  The level of expressed mRNA in the presence of chemical substance/The level of expressed mRNA in the absence of chemical substance: 1.4
Yeast gene YLR046C
  The level of expressed mRNA in the presence of chemical substance/The level of expressed mRNA in the absence of chemical substance: 0.9
Yeast gene YML028W
  The level of expressed mRNA in the presence of chemical substance/The level of expressed mRNA in the absence of chemical substance: 1.0
Yeast gene YML116W
  The level of expressed mRNA in the presence of chemical substance/The level of expressed mRNA in the absence of chemical substance: 4.3
Yeast gene YMR015C
  The level of expressed mRNA in the presence of chemical substance/The level of expressed mRNA in the absence of chemical substance: 1.0
Yeast gene YMR038C
  The level of expressed mRNA in the presence of chemical substance/The level of expressed mRNA in the absence of chemical substance: 2.7
Yeast gene YNL239W
  The level of expressed mRNA in the presence of chemical substance/The level of expressed mRNA in the absence of chemical substance: 1.9
Yeast gene YNL241C
  The level of expressed mRNA in the presence of chemical substance/The level of expressed mRNA in the absence of chemical substance: 3.0
Yeast gene YNL259C
  The level of expressed mRNA in the presence of chemical substance/The level of expressed mRNA in the absence of chemical substance: 1.6
Yeast gene YOL158C
  The level of expressed mRNA in the presence of chemical substance/The level of expressed mRNA in the absence of chemical substance: 0.7
Yeast gene YOR031W
  The level of expressed mRNA in the presence of chemical substance/The level of expressed mRNA in the absence of chemical substance: 1.2
Yeast gene YOR153W
  The level of expressed mRNA in the presence of chemical substance/The level of expressed mRNA in the absence of chemical substance: 1.0
Yeast gene YOR247W
  The level of expressed mRNA in the presence of chemical substance/The level of expressed mRNA in the absence of chemical substance: 2.9
Yeast gene YOR251C
  The level of expressed mRNA in the presence of chemical substance/The level of expressed mRNA in the absence of chemical substance: 1.0
Yeast gene YOR273C
  The level of expressed mRNA in the presence of chemical substance/The level of expressed mRNA in the absence of chemical substance: 1.5
Yeast gene YPL163C
  The level of expressed mRNA in the presence of chemical substance/The level of expressed mRNA in the absence of chemical substance: 0.5
Yeast gene YPR200C
  The level of expressed mRNA in the presence of chemical substance/The level of expressed mRNA in the absence of chemical substance: 2.0
